From paper PMC8154581, “Discovery of Novel Thiophene-arylamide Derivatives as DprE1 Inhibitors with Potent Antimycobacterial Activities” (Journal of Medicinal Chemistry, 2021) come the findings set out here.

≈ marks a conversion by molar mass, not a printed value. Where “and” joins values, the source holds several entries; their conditions need not be identical. Equal values may be shown once. Read-outs that look alike come from different tables or passages of the source.

As a reminder, the melting point is the temperature, or range, at which the solid turns liquid. For orientation: IC50 means the concentration needed to halve the response being measured.

For data set [1], the system named is M. tuberculosis H37Rv. Description: MIC against replicating M. tuberculosis H37Rv, microplate Alamar blue assay (MABA). In kind it is cell-based. On the technique in general: Alamar Blue is a resazurin reagent that responds to reducing activity.
A further data set concerns Vero cells. Put plainly: Cytotoxicity assay in Vero cells (MTT). Type of data set: cell-based. The conditions noted are these: for IC50: Chlorocebus sabaeus, Vero cells, 48 h, read-out: IC50 (Vero).
The next data set deals with Mt-DprE1 (Mycobacterium tuberculosis, UniProt P9WJF1). Type of data set: biochemical, M. tuberculosis.
Mt-DprE1, sequence (P9WJF1 whole entry, looked up): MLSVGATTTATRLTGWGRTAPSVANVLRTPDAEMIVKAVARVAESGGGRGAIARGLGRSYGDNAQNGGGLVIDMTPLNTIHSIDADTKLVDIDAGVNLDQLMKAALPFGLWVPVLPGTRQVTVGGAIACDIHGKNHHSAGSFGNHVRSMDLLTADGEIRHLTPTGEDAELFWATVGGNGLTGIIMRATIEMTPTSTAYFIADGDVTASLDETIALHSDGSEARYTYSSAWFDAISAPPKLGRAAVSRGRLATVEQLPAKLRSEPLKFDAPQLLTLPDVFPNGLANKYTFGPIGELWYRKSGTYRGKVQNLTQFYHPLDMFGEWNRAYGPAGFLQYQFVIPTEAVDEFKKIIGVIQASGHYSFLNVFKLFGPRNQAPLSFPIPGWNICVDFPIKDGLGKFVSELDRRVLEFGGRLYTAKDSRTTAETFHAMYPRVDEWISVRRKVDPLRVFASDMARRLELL
In data set [2] the test system is M. tuberculosis (H37Rv) in infected mouse J774A.1 macrophages. Type of data set: cell-based.
The test system of data set [3] is M. tuberculosis H37Rv. Description: In vivo efficacy in acute TB infection model in Balb/c mice. Particulars: for log10 CFU/lung: oral, three weeks, INH 25 mg/kg.
Setting [4] is: Mycobacterium tuberculosis, H37RV, against M. tuberculosis H37Rv, Tables 1-3, read-out: MIC.
The mark [5] stands for this setting: Mycobacterium tuberculosis, H37RV, supplementary CSV, same values as Tables 1-3, read-out: Minimal inhibit concentration.
Where [6] appears, read: Mycobacterium tuberculosis, H37RV, Table 4, read-out: MIC H37Rv.
[7] abbreviates: against M. tuberculosis H37Rv, Tables 1-3.

`Cc1ccnc(NC(=O)c2ccsc2NC(=O)c2ccc(C(=O)N3CCCCC3)c(F)c2)n1` [Compound 25k, 2-(3-Fluoro-4-(piperidine-1-carbonyl)benzamido)-N-(4-methylpyrimidin-2-yl)thiophene-3-carboxamide] showed a melting point of 148 to 150 °C. Further, in the data set on M. tuberculosis H37Rv [1] (setting [4]), the MIC is 0.47 µg/mL (≈ 1.01 µM). The MIC with M. tuberculosis H37Rv [1] (setting [5]) stood at 0.47 µg/mL (≈ 1.01 µM). In addition, in the data set on Vero cells, the SI is reported as more than 136 and the half-inhibitory concentration (IC50) is more than 64 µg/mL.
Take `Cc1ccnc(NC(=O)c2ccsc2NC(=O)c2ccc(C(=O)N3CCCCC3)cc2)n1` [Compound 25j, N-(4-Methylpyrimidin-2-yl)-2-(4-(piperidine-1-carbonyl)benzamido)thiophene-3-carboxamide]: the melting point lay within 177 to 178 °C. The MIC in the data set on M. tuberculosis H37Rv [1] (Mycobacterium tuberculosis, H37RV, against M. tuberculosis H37Rv, Tables 1-3) stood at 1.94 µg/mL (≈ 4.32 µM). For the same molecule, the MIC in the data set with M. tuberculosis H37Rv [1] (setting [5]) stood at 1.94 µg/mL (≈ 4.32 µM). Also, in the data set on Vero cells, the IC50 worked out at 51.9 µg/mL (≈ 115 µM).
In the case of `CCOC(=O)NC(=O)c1ccsc1NC(=O)c1ccc(C(=O)N2CCCCC2)cc1[N+](=O)[O-]` [Compound 24e, Ethyl (2-(2-Nitro-4-(piperidine-1-carbonyl)benzamido)thiophene-3-carbonyl)carbamate], the melting point was in the range of 113 to 114 °C. For the same molecule, the MIC with M. tuberculosis H37Rv [1] (setting [4]) was determined as 1.86 µg/mL (≈ 3.92 µM). Besides, the MIC in the data set on M. tuberculosis H37Rv [1] (setting [5]) came to 1.86 µg/mL (≈ 3.92 µM). Further, in the data set on Vero cells, the SI is more than 34 and the half-inhibitory concentration (IC50) was more than 64 µg/mL.
In turn, `CCOC(=O)NC(=O)c1ccsc1NC(=O)c1ccc(C(=O)NC2CCC(C)(C)CC2)cc1` [Compound 23f, Ethyl (2-(4-((4,4-Dimethylcyclohexyl)carbamoyl)benzamido)thiophene-3-carbonyl)carbamate] registered a melting point of more than 250 °C. Moreover, the MIC with M. tuberculosis H37Rv [1] (setting [4]) is 0.94 µg/mL (≈ 1.99 µM). The MIC in the data set with M. tuberculosis H37Rv [1] (setting [5]) was 0.94 µg/mL (≈ 1.99 µM). Moreover, in the data set on Vero cells, the SI is listed as more than 68 and the half-maximal inhibitory concentration (IC50) was more than 64 µg/mL.
Take `O=C(Nc1sccc1C(=O)Nc1nccc(C(F)(F)F)n1)c1ccc(C(=O)N2CCCCC2)cc1` [Compound 25l, 2-(4-(Piperidine-1-carbonyl)benzamido)-N-(4-(trifluoromethyl)pyrimidin-2-yl)thiophene-3-carboxamide]: the melting point lay in the range of 182 to 183 °C. For the same molecule, the MIC in the data set with M. tuberculosis H37Rv [1] (setting [4]) stood at 0.2 µg/mL (≈ 0.397 µM). In the data set with M. tuberculosis H37Rv [1] (setting [5]), the MIC was determined as 0.2 µg/mL (≈ 0.397 µM). Besides, the MIC in the data set on M. tuberculosis H37Rv [1] (setting [6]) turned out to be 0.2 µg/mL (≈ 0.397 µM). The same molecule showed an MIC in the data set on M. tuberculosis H37Rv [1] (setting [7]) of 0.20 µg/mL (≈ 0.397 µM). Also, the 50% inhibitory concentration (IC50) in the data set on Vero cells was more than 64 µg/mL. Besides, at Mt-DprE1, the “IC50 DprE1” value came to 0.4 ± 0.1 µg/mL (≈ 0.794 µM). Also, in data set [2], the “log10 CFU/macrophages” value was 4.54 ± 0.00 log10 CFU and 4.59 ± 0.03 log10 CFU; the “Δlog10 CFU” value was 0.98 log10 CFU and 0.93 log10 CFU.
The molecule `CCOC(=O)NC(=O)c1ccsc1NC(=O)c1ccc(C(=O)Nc2ccccc2)cc1` [Compound 23g, Ethyl (2-(4-(Phenylcarbamoyl)benzamido)thiophene-3-carbonyl)carbamate] returned a melting point of more than 250 °C. In addition, the MIC with M. tuberculosis H37Rv [1] (setting [4]) was 0.12 µg/mL (≈ 0.274 µM). Further, the MIC in the data set with M. tuberculosis H37Rv [1] (setting [5]) is 0.12 µg/mL (≈ 0.274 µM). Also, in the data set with Vero cells, the SI turned out to be 191 and the 50% inhibitory concentration (IC50) is 23 µg/mL (≈ 52.5 µM).
The molecule `CCOC(=O)NC(=O)c1ccsc1NC(=O)c1ccc(C(=O)N(CC)CC)cc1` [Compound 23c, Ethyl (2-(4-(Diethylcarbamoyl)benzamido)thiophene-3-carbonyl)carbamate] gave a melting point of 178 to 179 °C. The MIC with M. tuberculosis H37Rv [1] (setting [4]) amounted to 0.28 µg/mL (≈ 0.671 µM). Besides, the MIC with M. tuberculosis H37Rv [1] (setting [5]) was determined as 0.28 µg/mL (≈ 0.671 µM). In the data set with Vero cells, the SI is more than 229 and the concentration for half-maximal inhibition (IC50) is more than 64 µg/mL.
On to `CCOC(=O)NC(=O)c1ccsc1NC(=O)c1ccc(C(=O)NC23CC4CC(CC(C4)C2)C3)cc1` [Compound 23d, Ethyl (2-(4-(((3S,5S,7S)-Adamantan-1-yl)carbamoyl)benzamido)thiophene-3-carbonyl)carbamate], for which the melting point was in the range of 157 to 158 °C. Further, in the data set with M. tuberculosis H37Rv [1] (setting [4]), the MIC came to 0.12 µg/mL (≈ 0.242 µM). For the same molecule, the MIC with M. tuberculosis H37Rv [1] (setting [5]) is 0.12 µg/mL (≈ 0.242 µM). In addition, in the data set with Vero cells, the SI was 16 and the IC50 is 1.96 µg/mL (≈ 3.95 µM).
For `CCOC(=O)NC(=O)c1ccsc1NC(=O)c1ccc(C(=O)N2CCC2)cc1` [Compound 23h, Ethyl (2-(4-(Azetidine-1-carbonyl)benzamido)thiophene-3-carbonyl)carbamate], the melting point was in the range of 182 to 183 °C. For the same molecule, in the data set on M. tuberculosis H37Rv [1] (setting [4]), the MIC was found to be 0.84 µg/mL (≈ 2.09 µM). Further, in the data set on M. tuberculosis H37Rv [1] (setting [5]), the MIC came to 0.84 µg/mL (≈ 2.09 µM). Besides, in the data set with Vero cells, the SI is on record as more than 76 and the IC50 is more than 64 µg/mL.
In turn, `CCOC(=O)NC(=O)c1ccsc1NC(=O)c1ccc(C(=O)N2CCCCC2)cc1Cl` [Compound 24c, Ethyl (2-(2-Chloro-4-(piperidine-1-carbonyl)benzamido)thiophene-3-carbonyl)carbamate] returned a melting point of 59 to 60 °C. Also, the MIC in the data set with M. tuberculosis H37Rv [1] (setting [4]) was determined as 0.45 µg/mL (≈ 0.97 µM). The MIC in the data set on M. tuberculosis H37Rv [1] (setting [5]) was determined as 0.45 µg/mL (≈ 0.97 µM). For the same molecule, in the data set on Vero cells, the SI is on record as more than 142 and the concentration for half-maximal inhibition (IC50) was more than 64 µg/mL.
`CCCNC(=O)c1ccc(C(=O)Nc2sccc2C(=O)NC(=O)OCC)cc1` [Compound 23a, Ethyl (2-(4-(Propylcarbamoyl)benzamido)thiophene-3-carbonyl)carbamate] returned a melting point of 219 to 220 °C. The MIC with M. tuberculosis H37Rv [1] (setting [4]) came out at 0.2 µg/mL (≈ 0.496 µM). The MIC in the data set with M. tuberculosis H37Rv [1] (setting [5]) amounted to 0.2 µg/mL (≈ 0.496 µM). This molecule gave an MIC against M. tuberculosis H37Rv [1] (setting [7]) of 0.20 µg/mL (≈ 0.496 µM). Also, in the data set with Vero cells, the SI is given as more than 320 and the half-inhibitory concentration (IC50) was more than 64 µg/mL.
Regarding `CCOC(=O)NC(=O)c1ccsc1NC(=O)c1ccc(C(=O)N2CCC(OC)CC2)cc1` [Compound 23m, Ethyl (2-(4-(4-Methoxypiperidine-1-carbonyl)benzamido)thiophene-3-carbonyl)carbamate], the melting point lay in the range of 160 to 161 °C. In addition, the MIC in the data set on M. tuberculosis H37Rv [1] (setting [4]) was found to be 0.12 µg/mL (≈ 0.261 µM). Moreover, the MIC in the data set with M. tuberculosis H37Rv [1] (setting [5]) is 0.12 µg/mL (≈ 0.261 µM). Besides, in the data set on Vero cells, the SI is listed as more than 533 and the IC50 is more than 64 µg/mL.
Take `CCOC(=O)NC(=O)c1ccsc1NC(=O)c1ccc(C(=O)N2CCCCC2)cc1Br` [Compound 24d, Ethyl (2-(2-Bromo-4-(piperidine-1-carbonyl)benzamido)thiophene-3-carbonyl)carbamate]: the melting point lay within 144 to 145 °C. In addition, in the data set with M. tuberculosis H37Rv [1] (setting [4]), the MIC worked out at 0.49 µg/mL (≈ 0.964 µM). The MIC in the data set with M. tuberculosis H37Rv [1] (setting [5]) turned out to be 0.49 µg/mL (≈ 0.964 µM). Moreover, in the data set on Vero cells, the SI is recorded as more than 131 and the half-inhibitory concentration (IC50) is more than 64 µg/mL.
As to `NNC(=O)c1ccncc1` [INH, isoniazid, reference compound], the “log10 CFU/lung” value is recorded as 1.76 ± 0.49 log10 CFU with M. tuberculosis H37Rv [3] (first column (batch with 25a; untreated 6.44), 25a 100 mg/kg) and 1.93 ± 0.21 log10 CFU in the data set on M. tuberculosis H37Rv [3] (second column (another batch, with TCA1; untreated 7.10), TCA1 100 mg/kg). Also, in the data set on M. tuberculosis H37Rv [3] (in vivo), the “Δlog10 CFU” value was 4.68/5.17 log10 CFU. Besides, the MIC with M. tuberculosis H37Rv [1] (setting [6]) was 0.019 µg/mL (≈ 0.139 µM).
The molecule `CCOC(=O)NC(=O)c1ccsc1NC(=O)c1ccc(C(=O)NC2CCCCC2)cc1` [Compound 23e, Ethyl (2-(4-(Cyclohexylcarbamoyl)benzamido)thiophene-3-carbonyl)carbamate] gave a melting point of more than 250 °C. The MIC in the data set with M. tuberculosis H37Rv [1] (setting [4]) amounted to 0.5 µg/mL (≈ 1.13 µM). The MIC in the data set with M. tuberculosis H37Rv [1] (setting [5]) amounted to 0.5 µg/mL (≈ 1.13 µM). Moreover, in the data set with Vero cells, the SI is more than 128 and the IC50 is more than 64 µg/mL.
